The source of these data is patent publication US9555050B2 (BIOGEN MA INC., priority 2012, dated 2017).

Structures are written as SMILES.

In this test the target is T1, Human ATX protein (Homo sapiens, UniProt Q13822).
T1 construct: made in house
Nature of the test: ATX biochemical FRET assay with FS-3 substrate. The following applies: FS-3 substrate 2 μM, ATX 1.0 μg/mL, 30 min preincubation, 2 hours at room temperature. An excerpt:
ATX (Autotaxin) is a 125 KDa glycoprotein with lysophospholipase D (LPLD) activity that generates the bioactive lipid lysophosphatidic acid (LPA) from lysophosphatidylcholine (LPC). The ATX biochemical assay utilizes a FRET (fluorescence resonance energy transfer) technology platform. The fluorescence signal of FRET substrate FS-3 is quenched due to intra-molecular FRET of a fluorophore to a non-fluorescing quencher (Ferguson, C. G., et al., Org Lett. 2006 May 11; 8(10): 2023-2026, which is incorporated by reference in its entirety). ATX catalyzes the hydrolysis of the substrate which separates the dabsyl quencher from the fluorescein reporter, which becomes fluorescent. The reaction is monitored by a SpectraMax M5 (Molecular Devices, Sunnyvale, Calif.) with at excitation wavelength 485 nm and emission wavelength […].
Fatty acid free-BSA (Sigma A8806): 10 mg/mL in H2O, stored at 4° C.
2×ATX assay buffer: 100 mM Tris, 280 mM NaCl, 10 mM KCl, 2 mM CaCl2, 2 mM MgCl2, pH 7.4.
Human ATX protein: expressed and purified in house. Stored at −80° C.
Substrate FS-3 (Echelon, L-2000): 100 μg in 77.74.L H2O (1 mM stock), stored at −20° C.
384-well flat bottom plates—Corning #3575.
Compound dilution—All compounds were provided at 10 mM in 100% DMSO. In the first well, 2 μL of 10 mM compound was added to 78 μL of DMSO (1:40 dilution). In subsequent wells 3-fold dilution (total 10 dilutions) were performed.
1×ATX assay buffer was made up with a final concentration of 1 mg/mL fatty acid free-BSA using 2×ATX assay buffer, 10 mg/ml fatty acid free-BSA and ddH2O.
ATX protein was diluted with 1×ATX assay buffer to a concentration of 1.32 μg/mL (1.32×). 38 μL was added per well to the assay plate. The final concentration of ATX in the reaction as 1.0 μg/mL.
2 μL per well of compounds was transferred to provide the desired concentration. The plate was centrifuged, then incubated at room temperature for 30 minutes on the shaker.
FS-3 was diluted with 1×ATX assay buffer to a concentration of FS-3 of 10 μM (5×). Then, 10 μL was added per well to the assay plate. The final concentration of FS-3 in the reaction was 2 μM. The plate was centrifuged. The plate was kept shaking at room temperature for 2 hours. Because FS-3 substrate is light sensitive, plates were kept covered and protected from light.
Fluorescence was measured using SpectraMax M5 (excitation at 485 nm/emission at 538 nm, top read).
For `C[C@@H](c1ccc2c(C(F)F)c(O[C@H]3CC[C@@H](C)CC3)ccc2c1)N1CCC(C(=O)O)CC1` [Example 61, 1-((S)-1-(6-((cis-4-Methylcyclohexyl)oxy)-5-(difluoromethyl)naphthalen-2-yl)ethyl)piperidine-4-carboxylic acid], the IC50 is not above 250 nM.
The compound `O=C(O)[C@H]1CC[C@H](CNCc2ccc3c(C(F)(F)F)c(O[C@H]4CC[C@@H](C(F)(F)F)CC4)ccc3c2)CC1` [Example 25, (trans)-4-(((5-(trifluoromethyl)-6-((cis)-4-(trifluoromethyl)cyclohexyloxy)naphthalen-2-yl)methylamino)methyl)cyclohexanecarboxylic acid] showed an IC50 not above 250 nM.
With `O=C(O)CC1CN(Cc2ccc3c(C(F)(F)F)c(O[C@H]4CC[C@@H](C(F)(F)F)CC4)ccc3c2)C1` [Example 62, 2-(1-((5-(trifluoromethyl)-6-(4-cis-(trifluoromethyl)cyclohexyloxy)naphthalene-2-yl)methyl)azetidine-3-yl)acetic acid] the figure was not above 250 nM.
Take `CC(C)C(NC1CC(C(=O)O)C1(C)C)c1ccc2c(C(F)(F)F)c(O[C@H]3CC[C@@H](C(F)(F)F)CC3)ccc2c1` (relative stereo) [Example 39, 2,2-dimethyl-3-(2-methyl-1-(5-(trifluoromethyl)-6-((cis)-4-(trifluoromethyl)cyclohexyloxy)naphthalen-2-yl)propylamino)cyclobutanecarboxylic acid]: the IC50 was not above 250 nM.
`C[C@H]1CC[C@@H](Oc2ccc3cc(CN4CCC(C(=O)O)CC4)ccc3c2C(F)F)CC1` [Example 13, 1-((5-(Difluoromethyl)-6-((cis-4-methylcyclohexyl)oxy)naphthalen-2-yl)methyl)piperidine-4-carboxylic acid] yielded an IC50 not above 100 nM.
With `O=C(O)C[C@H]1CCCN(Cc2ccc3c(C(F)(F)F)c(O[C@H]4CC[C@@H](C(F)(F)F)CC4)ccc3n2)C1` [Example 14, 2-((R)-1-(((5-(trifluoromethyl)-6-(cis-4-(trifluoromethyl)cyclohexyl)oxy)quinolin-2-yl)methyl)piperidin-3-yl)acetic acid] the figure was not above 250 nM; with `O=C(O)c1ccc(CNCc2ccc3c(C(F)(F)F)c(O[C@H]4CC[C@@H](C(F)(F)F)CC4)ccc3c2)nc1` [Example 69, 6-((((5-(trifluoromethyl)-6-((cis)-4-(trifluoromethyl)cyclohexyloxy)naphthalene-2-yl)methyl)amino)methyl)nicotinic acid], not above 250 nM; with `NC1(C(=O)O)CCN(Cc2ccc3c(C(F)(F)F)c(O[C@H]4CC[C@@H](C(F)(F)F)CC4)ccc3c2)C1` (relative stereo) [Example 78, 1-((5-(trifluoromethyl)-6-((cis-4-(trifluoromethyl)cyclohexyl)oxy)-naphthalen-2-yl)methyl)-3-aminopyrrolidine-3-carboxylic acid], not above 500 nM.
On to `CC[C@H](c1ccc2c(C(F)(F)F)c(O[C@H]3CC[C@@H](C)CC3)ccc2c1)N1CCC[C@H](CC(=O)O)C1` [Example 60, 2-((3R)-1-((R)-1-(6-((cis-4-Methylcyclohexyl)oxy)-5-(trifluoromethyl)naphthalen-2-yl)propyl)piperidin-3-yl)acetic acid], for which the IC50 is not above 100 nM.
`CCC(c1ccc2c(C(F)(F)F)c(O[C@H]3CC[C@@H](C(F)(F)F)CC3)ccc2c1)N1CCC[C@@H](CC(=O)O)C1` (stereo partly drawn) [Example 89, 2-((S)-1-(1-(2-(cis-4-(trifluoromethyl)cyclohexyloxy)-1-(trifluoromethyl)naphthalen-6-yl)propyl)piperidin-3-yl)acetic acid]: the IC50 is not above 100 nM.
Compound `O=C(O)C1CCC(NCc2ccc3c(C(F)(F)F)c(O[C@H]4CC[C@@H](C(F)(F)F)CC4)ccc3c2)C1` (relative stereo) [Example 66, 1-((5-(trifluoromethyl)-6-((cis-4-(trifluoromethyl)cyclohexyl)oxy)-naphthalen-2-yl)methyl)aminocyclopentane-3-carboxylic acid] gave an IC50 not above 500 nM.
In turn, `O=C(NCCCP(=O)(O)O)c1ccc2c(C(F)(F)F)c(OCc3cc(Cl)cc(Cl)c3)ccc2c1` [Example 18, (3-(6-((3,5-dichlorobenzyl)oxy)-5-(trifluoromethyl)-2-naphthamido)propyl)phosphonic acid] displayed an IC50 not above 100 nM.
Consider `CCC(c1ccc2c(C(F)(F)F)c(O[C@H]3CC[C@@H](C)CC3)ccc2c1)N1CCC[C@H](CC(=O)O)C1` (stereo partly drawn) [Example 10, 2-((3R)-1-(1-(6-((cis-4-Methylcyclohexyl)oxy)-5-(trifluoromethyl)naphthalen-2-yl)propyl)piperidin-3-yl)acetic acid], for which the IC50 was not above 100 nM.
Take `O=C(O)CCC1CCC(NCc2ccc3c(C(F)(F)F)c(OC4CCC(C(F)(F)F)CC4)ccc3c2)CC1` (stereo not drawn) [Example 73, 3-((4-((5-(trifluoromethyl)-6-(cis-4-(trifluoromethyl)cyclohexyloxy)naphthalene-2-yl)methyl)amino)cyclohexyl)propionic acid]: the concentration for half-maximal inhibition (IC50) is not above 500 nM.
`CC1(C(=O)O)CCN(Cc2ccc3c(C(F)(F)F)c(O[C@H]4CC[C@@H](C(F)(F)F)CC4)ccc3c2)CC1` [Example 30, 4-methyl-1-((5-(trifluoromethyl)-6-((cis)-4-(trifluoromethyl)cyclohexyloxy)naphthalen-2-yl)methyl)piperidine-4-carboxylic acid] returned an IC50 not above 500 nM.
With `CC(C(=O)O)[C@H]1CCCN(Cc2ccc3c(C(F)(F)F)c(O[C@H]4CC[C@@H](C(F)(F)F)CC4)ccc3c2)C1` (mixture of isomers) [Example 102, (S)-2-((R)-1-((5-(trifluoromethyl)-6-((cis-4-(trifluoromethyl)cyclohexyl)oxy)naphthalen-2-yl)methyl)piperidin-3-yl)propanoic acid] the figure was not above 250 nM.
In turn, `CC1CN(Cc2ccc3c(C(F)(F)F)c(O[C@H]4CC[C@@H](C(F)(F)F)CC4)ccc3c2)CCC1C(=O)O` (relative stereo) [Example 74, 1-((5-(trifluoromethyl)-6-((cis-4-(trifluoromethyl)cyclohexyl)oxy)-naphthalen-2-yl)methyl)-3-methylpiperidine-4-carboxylic acid] yielded an IC50 not above 500 nM.
Take `O=C(O)C1CCCN(C(=O)c2ccc3c(C(F)(F)F)c(O[C@H]4CC[C@@H](C(F)(F)F)CC4)ccc3c2)CC1` (relative stereo) [Example 31, 1-(5-(trifluoromethyl)-6-((cis)-4-(trifluoromethyl)cyclohexyloxy)-2-naphthoyl)azepane-4-carboxylic acid]: the IC50 was not above 500 nM.
With `CCC(c1ccc2c(C(F)(F)F)c(O[C@H]3CC[C@@H](C)CC3)ccc2c1)N1CCC[C@@H](CC(=O)O)C1` (stereo partly drawn) [Example 52, 2-((3S)-1-(1-(6-((cis-4-Methylcyclohexyl)oxy)-5-(trifluoromethyl)naphthalen-2-yl)propyl)piperidin-3-yl)acetic acid] the figure was not above 100 nM; with `O=C(O)C[C@@H]1CCN(Cc2ccc3c(C(F)(F)F)c(O[C@H]4CC[C@@H](C(F)(F)F)CC4)ccc3c2)C1` [Example 71, (S)-1-((5-(trifluoromethyl)-6-((cis)-4-(trifluoromethyl)cyclohexyloxy)naphthalene-2-yl)methyl)pyrrolidine-3-acetic acid], not above 500 nM.
Regarding `C[C@H]1CC[C@@H](Oc2ccc3cc(C(N4CCC(C(=O)O)CC4)C(F)(F)F)ccc3c2C(F)(F)F)CC1` (stereo partly drawn) [Example 12, 1-(2,2,2-Trifluoro-1-(6-((cis-4-methylcyclohexyl)oxy)-5-(trifluoromethyl)naphthalen-2-yl)ethyl)piperidine-4-carboxylic acid], the IC50 was not above 500 nM.
On to `CCC(NC1CC(C(=O)O)C1(C)C)c1ccc2c(C(F)(F)F)c(O[C@H]3CC[C@@H](C)CC3)ccc2c1` (relative stereo) [Example 36, 2,2-dimethyl-3-(1-(6-((cis)-4-methylcyclohexyloxy)-5-(trifluoromethyl)naphthalen-2-yl)propylamino)cyclobutanecarboxylic acid], for which the IC50 is not above 500 nM.
Turning to `O=C(O)C[C@H]1CCCN(Cc2ccc3c(C(F)(F)F)c(OC4CCC(F)(F)CC4)ccc3c2)C1` [Example 4, (R)-2-(1-((6-((4,4-difluorocyclohexyl)oxy)-5-(trifluoromethyl)naphthalen-2-yl)methyl)piperidin-3-yl)acetic acid], the IC50 was not above 500 nM.
